Assay results: patent publication US11938138B2, “Methods for improved treatment of cancer” (Washington University, priority 2020, dated 2024)
“Also recorded” adds a separate entry of the source.

What was measured:
[1] = test system: Hematologic and solid malignancies; 17 with NMC; conditions: cited from earlier work
[2] = test system: K562 cells; experiment: Imatinib treatment of K562 cells after JQ1 pretreatment (CD24, annexin V/PI staining); type: cell-based, human
Protocol: CD24 surface protein was quantified using monoclonal human antibodies. Cells were spun down at 300 g for 3 minutes and washed twice with 1 mL of Cell Staining Buffer. The cell pellet was then resuspended in 50 μl of Cell Staining Buffer containing 0.2 μg of either CD24-APC or CD24-BV421. The tube was rotated at 4° C. in the dark for 30 minutes. After, cells were washed twice (as before) and finally resuspended in 200 μl of Cell Staining Buffer. Cells were excited with 450/45 and 660/20 lasers (wavelength/filter bandwidth, both in nm). For concomitant analysis of DNA content, we used CD24-APC. Cells were incubated with 10 μg/ml Hoechst 33342 in 5 mL of growth medium for 30 minutes prior to the staining protocol. For simultaneous assessment of apoptosis, cells were stained with CD24-BV421. After the final wash, instead of resuspending in 200 μl of Cell Staining Buffer, cells were washed twice with Annexin V Staining Buffer. […] All samples were measured on a Beckman-Coulter CytoFLEX S flow cytometer. […]
For the analysis of annexin V levels in either JQ1- or DMSO-treated CD24^high and CD24^low cells, we used a three-way ANOVA with treatment, cell state, and day as independent variables. […] For the cell cycle inhibitor experiment, data were analyzed using a one-way ANOVA with Dunnett's post hoc test using either DMSO or EtOH (for RO-3306) as controls.

[3] = test system: K562 cells; experiment: Cell cycle perturbation of K562 cells (DNA content, CD24, annexin V/PI); type: cell-based, human; conditions: five days, one-way ANOVA p<0.01 (FIG. 14H)
Protocol: CD24 surface protein was quantified using monoclonal human antibodies. Cells were spun down at 300 g for 3 minutes and washed twice with 1 mL of Cell Staining Buffer. The cell pellet was then resuspended in 50 μl of Cell Staining Buffer containing 0.2 μg of either CD24-APC or CD24-BV421. The tube was rotated at 4° C. in the dark for 30 minutes. After, cells were washed twice (as before) and finally resuspended in 200 μl of Cell Staining Buffer. Cells were excited with 450/45 and 660/20 lasers (wavelength/filter bandwidth, both in nm). For concomitant analysis of DNA content, we used CD24-APC. Cells were incubated with 10 μg/ml Hoechst 33342 in 5 mL of growth medium for 30 minutes prior to the staining protocol. For simultaneous assessment of apoptosis, cells were stained with CD24-BV421. After the final wash, instead of resuspending in 200 μl of Cell Staining Buffer, cells were washed twice with Annexin V Staining Buffer. Cells were then incubated in 50 μl Annexin V Staining Buffer containing 0.2 μg Annexin V-FITC and 100 μg/ml propidium iodide (PI). The reaction was incubated for 15 minutes at room temperature in the dark. Afterward, we added 150 μl of Annexin V Staining Buffer and proceeded to flow cytometry. All samples were measured on a Beckman-Coulter CytoFLEX S flow cytometer. Cells were excited with 450/45, 525/40, and 610/20 lasers. We collected 10,000 events per sample. The resulting data were processed with FlowJo Software for Mac Version 10.
We perturbed the cell cycle with lovastatin and nocodazole, two drugs classically used to synchronize cells in culture (Jackman and O'Connor, 2001), as well as the cyclin-dependent kinase inhibitors CVT-313 (Brooks et al., 1997) and RO-3306 (Vassilev et al., 2006). All drugs were dissolved in DMSO except nocodazole, which was dissolved in ethanol. […] Media was refreshed every 48 hours. After 36 hours of treatment, we stained for CD24 levels and nuclear DNA content. We gated for live, single cells using the forward scatter (FSC) and side scatter channels (SSC). Univariate cell cycle analysis was performed with FlowJo. We confirmed that all drugs perturbed cell cycle by altering the proportions of cells in either G1 or G2/M phase (FIG. 14G). […] Cultures remained under drug treatment until five days had elapsed, at which point we measured CD24 levels and stained for apoptosis (FIG. 14H). As before, we set gates to exclude debris to quantitate annexin V and PI, and measured CD24 in live cells gated on FSC and SSC. The G2 inhibitors, in particular, had very few cells in the FSC/SSC gate (typically below 5%).
For the analysis of annexin V levels in either JQ1- or DMSO-treated CD24^high and CD24^low cells, we used a three-way ANOVA with treatment, cell state, and day as independent variables. […] Multiple hypothesis correction was performed using Tukey's honestly significant difference. For the cell cycle inhibitor experiment, data were analyzed using a one-way ANOVA with Dunnett's post hoc test using either DMSO or EtOH (for RO-3306) as controls.

[4] = test system: MYC and CD24 mRNA; experiment: qRT-PCR for MYC and CD24 expression in K562 cells treated with JQ1; type: cell-based, human; conditions: K562, 250 nM JQ1, first 24 hours (FIG. 14C)
Protocol: Cells were pelleted, resuspended in 300 μl of RNA CellProtect, and stored at −80° C. When we were ready to extract RNA, we thawed cells, prepared samples using QIAGEN RNEasy Plus Mini Kit, and quantitated with the Qubit RNA High Sensitivity kit. We reverse transcribed 500 ng of RNA with the SuperScript VILO cDNA Synthesis Kit in a 20 μl reaction, with the following thermocycling parameters: 25° C. for 10 minutes; 42° C. for 2 hours; 85° C. for 5 minutes. We then performed PCR with 2 μl of the RT product as template, 1 μl each of forward and reverse primer (10 μM), 6 μl ddH2O, and 10 μl PowerUp SYBR Green Master Mix. We ran the PCR on an ABI QuantStudio 3 with the following settings: 2 minutes at 50° C., then 2 minutes at 95° C. (hot start); 45 cycles of 95° C. for 15 s followed by 60° C. for 1 minute. We generated melt curves after each PCR and all samples yielded a single peak. Gene-specific primers were obtained from PrimerBank (Wang et al., 2012b). Data were normalized to the levels of […].

[5] = test system: K562 cells; experiment: JQ1 treatment of K562 cells, CD24 surface staining by flow cytometry; type: cell-based, human
Protocol: HCT-116, N2a, HEK293T, and HepG2 cells were cultured in Dulbecco's Modified Eagle Medium (DMEM) supplemented with 10% fetal bovine serum (FBS) and 1% of either penicillin-streptomycin or antibiotic-antimycotic. K562 (unless otherwise indicated) and OCM-1A cells were grown under the same conditions as described above, replacing DMEM with RPMI 1640 Medium. Cells were grown at 37° C. with 5% carbon dioxide (CO2). Media was replenished every 2 days. HepG2 cells were a gift from the Genome Engineering iPSC Center (GEiC) at Washington University in St. Louis School of Medicine. OCM-1A cells were a gift from Dr. Michael Onken. For the CD24^high/CD24^low cell state analyses, K562 cells were grown in IMDM containing 10% v/v FBS and 1% penicillin-streptomycin at 37° C. with 5% CO2. Frozen aliquots were thawed and passaged every 48 hours until they reached a maximum concentration of 800,000 cells/ml. For experiments, cells were seeded at mid-log phase concentrations, around 400,000 cells/ml. At this point, ratio of CD24^high/CD24^low cells was approximately 1:1, as determined by flow cytometry.
CD24 surface protein was quantified using monoclonal human antibodies. Cells were spun down at 300 g for 3 minutes and washed twice with 1 mL of Cell Staining Buffer. […] All samples were measured on a Beckman-Coulter CytoFLEX S flow cytometer. […]

[6] = test system: MNNG/HOS osteosarcoma cells; conditions: as single agent; cited from earlier work
[7] = test system: K562 cells; conditions: Litzenburger et al., 2017; cited from earlier work

Compound: CCNC(=O)C[C@@H]1N=C(c2ccc(Cl)cc2)c2cc(OC)ccc2-n2c(C)nnc21 [GSK525762]
- Responses observed: PR in NMC patients ([1]; 17 with NMC): 2
- Responses observed: SD in NMC patients ([1]; 17 with NMC): 4
- RP2D ([1]; daily, 70 patients): 80 mg

Compound: Cc1sc2c(c1C)C(c1ccc(Cl)cc1)=N[C@@H](CC(=O)OC(C)(C)C)c1nnc(C)n1-2 [JQ1]
- sensitivity of K562 cells to imatinib ([2]; BET inhibitor pretreatment, then imatinib 1 μM): sensitizes K562 cells to imatinib
- fraction of CD24high cells after pretreatment (mean) ([2]; K562, 250 nM JQ1 for five days, DMSO group 54%): 17%
- reduction in CD24high cells compared with cell cycle inhibitors ([3]; 250 nM JQ1): greatest reduction
- apoptosis compared with lovastatin, its closest competitor ([3]; annexin V/PI): significantly less apoptosis
- time of JQ1 exposure within which MYC mRNA levels fell [4]: ≤ 3 h
- time course of conversion to CD24low state ([5]; K562, 250 nM JQ1, 7-day time course (FIG. 6D), rapid over first two days, stable at one week): plateaus at day four; also recorded: plateaued by day 4
- CD24low cells in the population after JQ1 exposure ([5]; K562, 250 nM JQ1, 96 h (FIG. 6C), start equal proportions CD24high/CD24low): > 95%
- tumor volume and weight [6]: had no effect on either

Compound: Cc1ccc(NC(=O)c2ccc(CN3CCN(C)CC3)cc2)cc1Nc1nccc(-c2cccnc2)n1 [imatinib]
- apoptosis of CD24low versus CD24high K562 cells when exposed to imatinib [7]: more apoptosis
